Assay results from patent publication US4874869A, “Hydantoin derivatives and medicines containing the same” (Eisai Co., Ltd., priority 1980, dated 1989).

How the values were obtained:
[1] = test system: sorbitol accumulation in the lens and the sciatic nerve; experiment: Reduction or inhibition of sorbitol accumulation in the lens and the sciatic nerve of streptozotocin-induced diabetic rats; assay type: in vivo, rat; conditions: vs no compound
Experimental: The compounds listed in Tables 1 and 2 were tested for the ability to reduce or inhibit the accumulation of sorbitol in the lens and the sciatic nerve of streptozotocin-induced diabetic rats by the method of M. J. Peterson et al., [Metabolism, Vol. 28, No. 4, Supply. 1 (April), 456-461 (1979)]. […] In this experiment, the amount of sorbitol accumulation in the lens and the sciatic nerve of the rat was measured 28 hours after induction of diabetes.
The compounds listed in Tables 1 and 2 were orally administered at, the dose levels indicated in the Tables, 4, 8 and 25 hours after the administration of the streptozotocin.

[2] = test system: galactitol accumulation in the lens and the sciatic nerve; experiment: Inhibition of galactitol accumulation in the lens and the sciatic nerve of galactosemic rats; assay type: in vivo, male Sprague-Dawley rats; conditions: for Inhibition of galactitol accumulation: 16th day
Experimental: (§1) On the 16th day of the study (24 hours after the final administration) lenticular opacities were observed, and then the lens and the sciatic nerve were enucleated to determine the content of carbohydrates.

aldose reductase = target: T1, aldose reductase (Bos taurus, UniProt P16116); experiment: Inhibition effect on aldose reductase; assay type: biochemical
T1 construct: Aldose reductase was prepared by the method of Hayman et al; from tissue
Experimental: Aldose reductase was prepared by the method of Hayman et al. [S. Hayman and K.K. Kinoshita; Journal of Biological Chemistry, Vol. 240, p.

[3] = test system: cataract formation in galactosemic rats; experiment: Effect on cataract formation in galactosemic rats (visual observation of lenticular opacities); assay type: in vivo, male Sprague-Dawley rats; conditions: for lenticular opacities, number with grade + / lenticular opacities, number with grade - (no opacity): 16th day, total 6
Experimental: as §1
The abscissa in FIG. 1 indicates the number of days from the beginning of feeding of a 30% galactose diet, and the ordinate indicates the percentages of appearance of the cataract.
In Table 3, a symbol - represents the case of no opacity and +, ++, +++ show the grade of the opacity, respectively.

With CC1(C)CC2(NC(=O)NC2=O)c2cc(Cl)ccc2O1 (centres unmarked) [6-Chloro-2,2-dimethyl-spiro-[chroman-4,4'-imidazolidine]-2',5'-dione] the “Inhibition of sorbitol accumulation” value ([1]; lens, 0.2 mg/kg oral, 4, 8 and 25 h after streptozotocin) was 11%, the “Inhibition of sorbitol accumulation” value ([1]; lens, 1 mg/kg oral, 4, 8 and 25 h after streptozotocin) was 60% and the “Inhibition of sorbitol accumulation” value ([1]; lens, 5 mg/kg oral, 4, 8 and 25 h after streptozotocin) was 78%. For the same molecule, the “Inhibition of sorbitol accumulation” value ([1]; lens, 10 mg/kg oral, 4, 8 and 25 h after streptozotocin) was 89%, the “Inhibition of sorbitol accumulation” value ([1]; sciatic nerve, 0.2 mg/kg oral, 4, 8 and 25 h after streptozotocin) was 47% and the “Inhibition of sorbitol accumulation” value ([1]; sciatic nerve, 1 mg/kg oral, 4, 8 and 25 h after streptozotocin) was 86%. For the same molecule, the “Inhibition of sorbitol accumulation” value ([1]; sciatic nerve, 5 mg/kg oral, 4, 8 and 25 h after streptozotocin) was 95%, the “Inhibition of sorbitol accumulation” value ([1]; sciatic nerve, 10 mg/kg oral, 4, 8 and 25 h after streptozotocin) was 100% and the “Inhibition of galactitol accumulation” value ([2]; lens, 1 mg/kg oral once a day) was 2%. For the same molecule, the “Inhibition of galactitol accumulation” value ([2]; lens, 5 mg/kg oral once a day) was 19%, the “Inhibition of galactitol accumulation” value ([2]; lens, 25 mg/kg oral once a day) was 46% and the “Inhibition of galactitol accumulation” value ([2]; sciatic nerve, 1 mg/kg oral once a day) was 5%. The “Inhibition of galactitol accumulation” value ([2]; sciatic nerve, 5 mg/kg oral once a day) was 50%, the “Inhibition of galactitol accumulation” value ([2]; sciatic nerve, 25 mg/kg oral once a day) was 74% and the “inhibitory effect on galactitol accumulation in the sciatic nerve relative to the control compound” value ([2]; sciatic nerve, vs control compound) was “five times or more”. The “inhibition of galactitol accumulation relative to the control compound” value ([2]; vs control compound) was “remarkably superior to the control compound”, the “Inhibition on aldose reductase” value (aldose reductase; 3 × 10^-6 (M)) was 79% and the “Inhibition on aldose reductase” value (aldose reductase; 3 × 10^-7 (M)) was 8%. For the same molecule, the “Inhibition on aldose reductase” value (aldose reductase; 10^-6 (M)) was 47%, the “Inhibition on aldose reductase” value (aldose reductase; 10^-7 (M)) was -4% and the IC50 (aldose reductase; Table 5, read-out: ID50 (concentration of 50% inhibition on aldose reductase)) was 1000 nM. For the same molecule, the “lenticular opacities on the 16th day (in words)” value ([3]; 5 mg/kg oral once a day) was “lenticular opacities were not observed”, the “lenticular opacities on the 16th day (in words)” value ([3]; 25 mg/kg oral once a day) was “lenticular opacities were not observed” and the “inhibition effect on cataract formation (in words)” value ([3]; galactosemic rats, FIG. 1 and Table 3) was “superior to the control compound”. For the same molecule, the “lenticular opacities, number with grade +” value ([3]; left, 1 mg/kg oral once a day) was 1, the “lenticular opacities, number with grade - (no opacity)” value (“lenticular opacities … (no opacity)” below) ([3]; left, 1 mg/kg oral once a day) was 5 and the “lenticular opacities … (no opacity)” value ([3]; left, 5 mg/kg oral once a day) was 6. The “lenticular opacities … (no opacity)” value ([3]; left, 25 mg/kg oral once a day) was 6, the “lenticular opacities, number with grade +” value ([3]; right, 1 mg/kg oral once a day) was 1 and the “lenticular opacities … (no opacity)” value ([3]; right, 1 mg/kg oral once a day) was 5. The “lenticular opacities … (no opacity)” value ([3]; right, 5 mg/kg oral once a day) was 6 and the “lenticular opacities … (no opacity)” value ([3]; right, 25 mg/kg oral once a day) was 6.
